Experimental data reported in US20220047587A1, “SYNERGISTIC COMPOSITIONS COMPRISING R-2-(SUBSTITUTED-SULFONYL)-HEXAHYDRO-PYRROLO[1,2-A]PYRAZIN-6(2H)-ONES AND S-2-(SUBSTITUTED-SULFONYL)-HEXAHYDRO-PYRROLO[1,2-A]PYRAZIN-6(2H)-ONES IN A NON-RACEMIC RATIO” (Metys Pharmaceuticals AG, priority 2018, published 2022).
Marks after values point to notes of the source that are not given here.

How the values were obtained:
paclitaxel-treated rats = test: Paclitaxel-induced peripheral sensory neuropathy model, hyperalgesia (paw pressure) after i.v. administration; type: in vivo, rat
Excerpt: (§1) Results are expressed as the minimum dose (via the indicated route) at which a statistically-significant difference is observed when compared to time-matched injured rats receiving a vehicle administration by the same route. An analysis of variance, ANOVA, followed by Fisher's protected least significant difference procedure for post hoc comparison, was used to verify significance between two means of hyperalgesic behavioral results from the Randall & Selitto apparatus paw pressure test (“anti-hyperalgesia”) or from the Von Frey test (“mechanical allodynia”) or from the Cold Plate test (“cold allodynia”). P values 0.05 were considered significant. This definition applies to any doses specified herein as inhibiting “in a statistically significant manner”.
(§2) Paw mechanical sensitivity was determined using a Randall & Selitto apparatus (Randall and Selitto, 1957) exerting a force that increases at constant rate (32 g/s). The stimulus causing paw withdrawal was evaluated before and at different times after treatment. Results represent the mean of mechanical thresholds for paw withdrawal expressed as grams. To avoid possible damage to the rat paw the maximum applied force was set at 240 g. In the single administration protocol, paw pressure tests were performed before (pre-dose) and at regular intervals after treatment.
Paclitaxel (2 mg/kg i.p.) was administered on days 1, 3, 5 and 8. Test compounds were dissolved in saline and administered intravenously at the dose of 1 mg/kg to adult male Sprague-Dawley rats (Charles River, Italy, 220-250 g weight). Data were obtained at 0-75 minutes after injection and are expressed as the mean±s.e.m. of six animals. *P<0.05 and **<0.01 vs vehicle+paclitaxel treated rats; °P<0.05 and ^°°P<0.01 vs. NT24336 (R) treated group. […] *P<0.05 and **<0.01 vss vehicle+paclitaxel treated rats.

scopolamine-treated mice = settings: s.c., passive avoidance, cited from earlier work; for Amnesia reversal, %: at the lowest significant dose
CCI rats = test: Chronic constriction injury (CCI) model, mechanical allodynia after oral administration; type: in vivo, rat; settings: p.o.
Excerpt: as §1
Each animal was placed in a chamber with a mesh metal floor covered by a plastic dome that enabled the animal to walk freely, but not to jump. The mechanical stimulus was then delivered in the mid-plantar skin of left hind paw using an electronic von Frey apparatus (37400 Dynamic Plantar Aesthesiometer, Ugo Basile, Comerio, Varese, Italy). The cut-off was set at 50 g, while the increasing force rate (ramp duration) was set at 20 s. In the single administration protocol, pain threshold measurements have been performed before (pre-dose) and at regular intervals after treatment. In the repeated treatment protocol, the pre-test value was measured 13 h after the last administration; afterward the animals received a new administration and measures were performed at the described times. Results are expressed in […] and represent the mean±S.E.M. of mechanical thresholds.
To evaluate the effect of test compounds in comparison to vehicle or selected comparators on mechanical hyperalgesia, the chronic constriction injury models in rats, a widely accepted model of painful neuropathy (Wang and Wang, 2003) was chosen.
Neuropathy was induced according to the procedure described by Bennett and Xie ([…]). Briefly, rats were anaesthetized with chloral hydrate 400 mg/kg i.p. under aseptic conditions, the right common sciatic nerve was exposed at the level of the middle thigh by blunt dissection. Proximal to the trifurcation, the nerve was carefully freed from the surrounding connective tissue and four chromic cat gut ligatures (4-0, Ethicon, Norderstedt, Germany) were tied loosely around it with about 1 mm spacing. After hemostasis was confirmed, the incision was closed in layers. Then animals were allowed to recover from anesthesia and surgery and were kept one per cage with free access to water and standard laboratory chow. This procedure induces the appearance of hyperalgesia and allodynia in response to mechanical stimuli, which are evident 2-5 days after injury and reach their maximum severity in about 14 days.

MIA-treated rats = test: MIA-induced knee osteoarthritis model, mechanical hyperalgesia after i.v. administration; type: in vivo, rat
Excerpt: as §1, §2
A single intra-articular injection of sodium monoiodoacetate (MIA) was introduced into the knee joint of rats according to the method described by Fernihough J et al., 2004. Sodium monoiodoacetate (MIA) inhibits chondrocyte metabolism leading to cartilage degradation in form of osteoarthritic-like focal lesions in the cartilage associated with subchondral bone thickening 14 days after administration (Guingamp et al., 1997). This model therefore can easily and quickly reproduce osteoarthritic-like lesions and functional impairment in rats, similar to that observed in human disease (Guzman et al., 2003). After 7 days post-injection, the inflammatory component subsides and the remaining pain is considered neuropathic in nature. Briefly, rats were deeply anaesthetized with diethyl ether. Following abolition of the hind paw pinch withdrawal reflex, a 27-gauge needle was introduced into the joint cavity between the tibial plateau and femoral condyles. Once in place, 2 mg of MIA were diluted in a volume of […] of 1% CMC (carboxymethylcellulose in water, Sigma-Aldrich, Italy) and injected into one knee joint and the rat was allowed to recover for 14 days prior to pain assessment.

[1] = tested on: streptozotocin-treated mice; test: Streptozotocin diabetic peripheral neuropathy model, thermal hyperalgesia after oral administration; type: in vivo, mouse; settings: p.o.
Excerpt: as §1
Mice (=30 g) were injected intravenously in the tail with 200 mg/kg streptozotocin (Wako Pure Chemicals, Richmond, Va.) prepared in saline adjusted to pH 4.5 in 0.1 N citrate buffer. Age-matched non-diabetic control mice were injected with the vehicle alone. Streptozotocin solutions were freshly prepared due to the limited stability of the compound. Animals were kept in a group of four per cage with special care of food and water supplement. The bed of the cage was changed every day. […] The serum glucose level was measured by glucose oxidase method from blood samples obtained by tail vein pricking. […] Animals at 7 days post-streptozotocin treatment were used in the study. […] Injections were performed using a Hamilton microliter syringe fitted with a 26-gauge needle, according to the method of Haley and McCormick (1957). The site of injection was 2 mm caudal and 2 lateral to the bregma, and 3 mm in depth from the skull surface. The injection volume was 5 μl.

oxaliplatin-treated rats = test: Oxaliplatin-induced peripheral sensory neuropathy model, hyperalgesia after oral administration; type: in vivo, rat; settings: p.o.
Excerpt: as §1, §2
Peripheral sensory neuropathy was induced in adult rats, by administration of oxaliplatin (Tocris) at […] i.p. in saline once daily for 5 consecutive days every week for three weeks (cumulative dose 36 mg/kg) according to Cavaletti et al., 2001. Starting from day 21 after the first oxaliplatin administration, the effect of repeated oral administration of racemic unifiram or the preferred inventive composition with an enantiomeric excess of (R)-unifiram of 50% corresponding to a 3:1 (R):(S) ratio of the enantiomers on oxaliplatin-induced mechanical hyperalgesia was assessed.

vincristine-treated rats = test: Vincristine-induced peripheral sensory neuropathy model, hyperalgesia after oral administration; type: in vivo, rat; settings: p.o.
Excerpt: as §1, §2

SMILES	Lowest dose at which paclitaxel-induced hyperalgesia is inhibited in a statistically significant manner (P < 0.05) (paclitaxel-treated rats; 15 min after administration)	Lowest dose at which paclitaxel-induced hyperalgesia is inhibited in a statistically significant manner (P < 0.05) (paclitaxel-treated rats; 30 min after administration)	Lowest dose at which paclitaxel-induced hyperalgesia is inhibited in a statistically significant manner (P < 0.05) (paclitaxel-treated rats; 45 min after administration)	Amnesia reversal, % (scopolamine-treated mice)	Lowest Dose at which scopolamine-induced amnesia is reversed in a statistically significant manner (P < 0.01) (scopolamine-treated mice)	Lowest dose at which streptozotocin-induced diabetese-like thermal hyperalgesia is inhibited in a statistically significant manner (P < 0.05) ([1]; 30 min after administration)	Lowest dose at which streptozotocin-induced diabetese-like thermal hyperalgesia is inhibited in a statistically significant manner (P < 0.05) ([1]; 60 min after administration)	Lowest dose at which streptozotocin-induced diabetese-like thermal hyperalgesia is inhibited in a statistically significant manner (P < 0.05) ([1]; 90 min after administration)	further results
O=C1CCC2CN(S(=O)(=O)c3ccc(F)cc3)CCN12 (centres unmarked) [NT-24266, 2-(4-fluorophenyl)sulfonyl-hexahydropyrrolo[1,2-a]pyrazin-6(2H)-one]	1 mg/kg	3 mg/kg	>10 mg/kg	75%	0.001 mg/kg				
O=C1CCC2CN(S(=O)(=O)c3cccc(F)c3)CCN12 (centres unmarked) [NT-24337, 2-(3-fluorophenyl)sulfonyl-hexahydropyrrolo[1,2-a]pyrazin-6(2H)-one]	3 mg/kg	3 mg/kg	3 mg/kg			10 mg/kg	10 mg/kg	10 mg/kg	Lowest dose at which CCI-induced mechanical allodynia is inhibited in a statistically significant manner (P < 0.05) (CCI rats; 30 min after administration): 1 mg/kg; Lowest dose at which CCI-induced mechanical allodynia is inhibited in a statistically significant manner (P < 0.05) (CCI rats; 60 min after administration): 1 mg/kg; Lowest dose at which CCI-induced mechanical allodynia is inhibited in a statistically significant manner (P < 0.05) (CCI rats; 90 min after administration): 3 mg/kg; Lowest dose at which MIA-induced mechanical hyperalgesia is inhibited in a statistically significant manner (P < 0.05) (MIA-treated rats; 15 min after administration): 3 mg/kg; Lowest dose at which MIA-induced mechanical hyperalgesia is inhibited in a statistically significant manner (P < 0.05) (MIA-treated rats; 30 min after administration): 3 mg/kg; Lowest dose at which MIA-induced mechanical hyperalgesia is inhibited in a statistically significant manner (P < 0.05) (MIA-treated rats; 45 min after administration): 3 mg/kg
O=C1CCC2CN(S(=O)(=O)c3ccc(F)cc3)CCN12 (racemic) [NT-24617, (RS)-2-[(4-fluorophenyl)sulfonyl]hexahydropyrrolo[1,2-a]pyrazin-6-one]	3* mg/kg	3 mg/kg	3 mg/kg	100%	0.001 mg/kg				Lowest dose at which paclitaxel-induced hyperalgesia is inhibited in a statistically significant manner (P < 0.05) (paclitaxel-treated rats; 60 min after administration): >3 mg/kg
O=C1CC[C@@H]2CN(S(=O)(=O)c3ccccc3F)CCN12 [NT-24336, 2-(2-fluorobenzenesulfonyl)hexahydropyrrolo[1,2-a]pyrazin-6-one]	3 mg/kg	3 mg/kg	3 mg/kg			30 mg/kg	30 mg/kg	30 mg/kg	Lowest dose at which CCI-induced mechanical allodynia is inhibited in a statistically significant manner (P < 0.05) (CCI rats; 30 min after administration): 1 mg/kg; Lowest dose at which CCI-induced mechanical allodynia is inhibited in a statistically significant manner (P < 0.05) (CCI rats; 60 min after administration): 3 mg/kg; Lowest dose at which CCI-induced mechanical allodynia is inhibited in a statistically significant manner (P < 0.05) (CCI rats; 90 min after administration): 3 mg/kg; Lowest dose at which MIA-induced mechanical hyperalgesia is inhibited in a statistically significant manner (P < 0.05) (MIA-treated rats; 15 min after administration): 3 mg/kg; Lowest dose at which MIA-induced mechanical hyperalgesia is inhibited in a statistically significant manner (P < 0.05) (MIA-treated rats; 30 min after administration): 3 mg/kg; Lowest dose at which MIA-induced mechanical hyperalgesia is inhibited in a statistically significant manner (P < 0.05) (MIA-treated rats; 45 min after administration): 3 mg/kg; Lowest dose at which streptozotocin-induced diabetese-like thermal hyperalgesia is inhibited in a statistically significant manner (P < 0.05) ([1]; 120 min after administration): 30 mg/kg; Lowest dose at which oxaliplatin-induced hyperalgesia is inhibited in a statistically significant manner (P < 0.05) (oxaliplatin-treated rats; 30 min after administration): 1 mg/kg; Lowest dose at which oxaliplatin-induced hyperalgesia is inhibited in a statistically significant manner (P < 0.05) (oxaliplatin-treated rats; 60 min after administration): 1 mg/kg; Lowest dose at which oxaliplatin-induced hyperalgesia is inhibited in a statistically significant manner (P < 0.05) (oxaliplatin-treated rats; 90 min after administration): 1 mg/kg; Lowest dose at which oxaliplatin-induced hyperalgesia is inhibited in a statistically significant manner (P < 0.05) (oxaliplatin-treated rats; 120 min after administration): >10 mg/kg; Lowest dose at which vincristine-induced hyperalgesia is inhibited in a statistically significant manner (P < 0.05) (vincristine-treated rats; 30 min after administration): 10 mg/kg; Lowest dose at which vincristine-induced hyperalgesia is inhibited in a statistically significant manner (P < 0.05) (vincristine-treated rats; 60 min after administration): 10 mg/kg; Lowest dose at which vincristine-induced hyperalgesia is inhibited in a statistically significant manner (P < 0.05) (vincristine-treated rats; 90 min after administration): 10 mg/kg; Lowest dose at which vincristine-induced hyperalgesia is inhibited in a statistically significant manner (P < 0.05) (vincristine-treated rats; 120 min after administration): >10 mg/kg
O=C1CCC2CN(S(=O)(=O)c3ccc(F)cc3)CCN12 (centres unmarked) [NT-24234, 2-(4-fluorophenyl)sulfonyl-hexahydropyrrolo[1,2-a]pyrazin-6(2H)-one]	1 mg/kg	3 mg/kg	>10 mg/kg	78%	0.003 mg/kg				
CNCC[C@H](Oc1cccc2ccccc12)c1cccs1 [Duloxetine, reference compound]						30 mg/kg	30 mg/kg	30 mg/kg	Lowest dose at which streptozotocin-induced diabetese-like thermal hyperalgesia is inhibited in a statistically significant manner (P < 0.05) ([1]; 120 min after administration): 30 mg/kg
O=C1CCC2CN(S(=O)(=O)c3cccc(F)c3)CCN12 (centres unmarked) [NT-24782, 2-(3-fluorophenyl)sulfonyl-hexahydropyrrolo[1,2-a]pyrazin-6(2H)-one]	>3 mg/kg	>3 mg/kg	>3 mg/kg						
